In patent US20150283233A1, “Compositions and Methods for Enhancing Immune Responses” (Gencia Corporation, priority 2012, published 2015):

Tested on: MHC I
Experiment: MHC I western blot of orthotopic MiaPaca-2 pancreatic xenografts, with or without gemcitabine
Format: in vivo, BALB/c nude mouse
Settings: gemcitabine only, 40 mg/kg every 3 days, orthotopic MiaPaca-2 tumors, FIG. 11
Protocol: MiaPaCa-2 tumor cells was maintained in vitro as monolayer culture in DMEM medium supplemented with 10% fetal bovine serum, 2.5% horse serum, 100 Um′ penicillin and 100 μg/ml streptomycin, and 2 mM L-glutamine at 37° C. in an atmosphere of 5% CO2 in air. The tumor cells were routinely subcultured twice weekly by trypsin-EDTA treatment. Cells in an exponential growth phase will be harvested and counted for tumor inoculation. Before orthotopic implantation, 5×10^6 MiaPaca-2 cells in 50 μl PBS mixed with 50 μl Matrigel were inoculated subcutaneously at the right flank of each BALB/c nude mouse. Upon subcutaneous tumor size reaching about 500 mm^3, tumors were collected for orthotopic implantation.
For orthotopic MiaPaca-2 xenografts, mice were anesthetized by intraperitoneal injection of pentobarbital sodium (50 mg/kg) before tumor inoculation. The abdominal skin was sterilized and laparotomy was performed to expose the pancreas. Each mouse was inoculated with a subcutaneous MiaPaca-2 tumor fragment (2-3 mm in diameter) in the subcapsular region of the pancreas for tumor development. The abdominal wall was closed using No. 6 suture and then sterilized with povidone iodine solution. The day of surgery was denoted as Day 0 (D0). The treatments with vehicle, gemcitabine only, PTD-TFAM only, and PTD-TFAM in combination with gemcitabine were started at 10 days post tumor fragment inoculation. […]

Nc1ccn([C@@H]2O[C@H](CO)[C@@H](O)C2(F)F)c(=O)n1 [Gemcitabine]
MHC I expression: decreased
